In patent publication US20250188092A1, “RIFAMYCIN ANALOGS” (THE REGENTS OF THE UNIVERSITY OF MICHIGAN, priority 2021, published 2025):
Converted amounts (≈) assume the structure as drawn.

Tested on: non-replicating cultures of M. tuberculosis H37Rv transformed with lux ABCDE
Experiment: microbe, parasite or virus in culture
Format: cell-based, Mycobacterium tuberculosis
Settings: for MIC90 LORA/MABA: ratio of LORA MIC90 to MABA MIC90; for MIC: Mycobacterium tuberculosis, H37RV
[1] = […], ≥90% reduction in luminescence, read-out: MIC90 LORA

SMILES | MIC90 LORA Rel to RMP | MIC90 [1] [µM] | MIC90 LORA/MABA | MIC [1] [µM]
CO[C@H]1/C=C/O[C@@]2(C)Oc3c(C)c(O)c4c(=O)c(c5oc6cc(C=O)cc(N7CCN(C)CC7)c6nc-5c4c3C2=O)NC(=O)/C(C)=C\C=C\[C@H](C)[C@H](O)[C@@H](C)[C@@H](O)[C@@H](C)[C@H](OC(C)=O)[C@@H]1C [Compound 30b, (7S,9E,11S,12R,13S,14R,15R,16R,17S,18S,19E,21Z)-30-Formyl-2,15,17-trihydroxy-11-methoxy-3,7,12,14,16,18,22-heptamethyl-32-(4-methylpiperazin-1-yl)-6,23,37-trioxo-8,27,38-trioxa-24,34-diazahexacyclo[23.11.1.1^4,7.0^5,36.0^26,35.0^28,33]octatriaconta-1(36)2,4,9,19,21,25,28,30,32,34-undecaen-13-yl acetate] | 0.44 | 0.114 | 3.1 | 
CO[C@H]1/C=C/O[C@@]2(C)Oc3c(C)c(O)c4c(=O)c(c5oc6cccc(OCCCCN7CCN(C(=O)OC(C)(C)C)CC7)c6nc-5c4c3C2=O)NC(=O)/C(C)=C\C=C\[C@H](C)[C@H](O)[C@@H](C)[C@@H](O)[C@@H](C)[C@H](OC(C)=O)[C@@H]1C [Compound 5c, Tert-Butyl 4-(4-{[(7S,9E,11S,12R,13S,14R,15R,16R,17S,18S,19E,21Z)-13-(acetyloxy)-2,15,17-trihydroxy-11-methoxy-3,7,12,14,16,18,22-heptamethyl-6,23,37-trioxo-8,27,38-trioxa-24,34-diazahexacyclo[23.11.1.1^4,7.0^5,36.0^26,35.0^28,33]octatriaconta-1(36)2,4,9,19,21,25,28(33)29,31,34-undecaen-32-yl]oxy}butyl)piperazine-1-carboxylate] | 0.22 |  | 2.4 | 0.058 (≈ 0.0604 µg/mL)
CO[C@H]1/C=C/O[C@@]2(C)Oc3c(C)c(O)c4c(=O)c(c5oc6cccc(OCCCCN7CCN(C)CC7)c6nc-5c4c3C2=O)NC(=O)/C(C)=C\C=C\[C@H](C)[C@H](O)[C@@H](C)[C@@H](O)[C@@H](C)[C@H](OC(C)=O)[C@@H]1C [Compound 5a, (7S,9E,11S,12R,13S,14R,15R,16R,17S,18S,19E,21Z)-2,15,17-Trihydroxy-11-methoxy-3,7,12,14,16,18,22-heptamethyl-32-[4-(4-methylpiperazin-1-yl)butoxy]-6,23,37-trioxo-8,27,38-trioxa-24,34-diazahexacyclo[23.11.1.1^4,7.0^5,36.0^26,35.0^28,33]octatriaconta-1(36)2,4,9,19,21,25,28(33)29,31,34-undecaen-13-yl acetate] | 0.57 |  | 2.0 | 0.186
CO[C@H]1/C=C/O[C@@]2(C)Oc3c(C)c(O)c4c(=O)c(c5oc6cc(N7CCN(C)CC7)cc(OCCCCN7CCN(C(=O)Cn8ccnc8)CC7)c6nc-5c4c3C2=O)NC(=O)/C(C)=C\C=C\[C@H](C)[C@H](O)[C@@H](C)[C@@H](O)[C@@H](C)[C@H](OC(C)=O)[C@@H]1C [Compound 6c, (7S,9E,11S,12R,13S,14R,15R,16R,17S,18S,19E,21Z)-2,15,17-Trihydroxy-32-(4-{4-[2-(1H-imidazol-1-yl)acetyl]piperazin-1-yl}butoxy)-11-methoxy-3,7,12,14,16,18,22-heptamethyl-30-(4-methylpiperazin-1-yl)-6,23,37-trioxo-8,27,38-trioxa-24,34-diazahexacyclo[23.11.1.1^4,7.0^5,36.0^26,35.0^28,33]octatriaconta-1(36)2,4,9,19,21,25,28(33)29,31,34-undecaen-13-yl acetate] | 0.14 |  | 0.5 | 0.021
